Target: T1, Trametes villosa laccase (TvL) (Trametes villosa, UniProt Q99044)
T1 construct: purchased Novo Nordisk A/S
T1 sequence (Q99044 22-520): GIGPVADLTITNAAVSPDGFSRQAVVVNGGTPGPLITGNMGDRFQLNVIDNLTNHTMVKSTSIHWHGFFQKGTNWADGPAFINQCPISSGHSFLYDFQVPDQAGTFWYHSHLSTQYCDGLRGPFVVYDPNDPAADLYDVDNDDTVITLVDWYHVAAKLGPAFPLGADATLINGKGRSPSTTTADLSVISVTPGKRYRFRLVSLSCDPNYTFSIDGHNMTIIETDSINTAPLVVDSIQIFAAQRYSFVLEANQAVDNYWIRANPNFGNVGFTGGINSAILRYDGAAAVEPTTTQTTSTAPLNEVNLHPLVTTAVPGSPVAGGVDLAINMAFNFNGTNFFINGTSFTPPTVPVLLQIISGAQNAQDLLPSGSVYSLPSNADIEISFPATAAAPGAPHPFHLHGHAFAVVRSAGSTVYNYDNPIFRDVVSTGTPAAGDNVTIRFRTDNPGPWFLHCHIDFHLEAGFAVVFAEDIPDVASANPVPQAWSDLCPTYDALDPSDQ
Test: Laccase TvL treatment of tobacco extract, HPLC analysis of phenolic compounds (peak area)
Assay type: biochemical
Conditions: for % Remaining (peak area) after various treatment times: intensive, submerse aeration; for % Remaining (peak area) after 75 minutes / % Remaining (peak area) after 240 minutes: 1.6 µg/ml TvL, ambient temperature (approximately 20°C); for % Remaining (peak area) after 75 minutes / % Remaining (peak area) after 240 minutes / reduction in the area of the peaks (HPLC) following enzyme treatment: surface aeration; for reduction in the area of the peaks (HPLC) following enzyme treatment: tobacco extract, approximately 1.6 µg/ml TvL, pH 5.5 and 55°C
Protocol: The content of phenolic compounds is analysed by HPLC according to the procedure described below: • Liquid chromatographic system: E.g. Shimadzu SCL-6B System Controller, and two LC-6A Liquid Chromatograph (pumps) or Waters model 600 E • Injector: Shimadzu SIL 6B Autoinjector or Waters 715 Ultra Wisp. UV detector: Shimadzu SPD-6A Photodiode Array UV-VIS detector or Waters Model 481 • Software: CLASS LC10 / CLASS-MXA or Maxima 820 • Column: Supelcosil™ LC-18 25 cm x 4.6 mm (Supelco, #5-8298) or µ Bondapack C198 stainless steel column, 30 cm x 4 mm i.d., 10 µm particle size. • Guard column: none or Guard-Pak from Waters packed with the same material. • Temperature: Ambient • Mobile phase flow: 1.3 ml/min • Injection volume: 20µl • Wavelength: 350 nm • Eluent: Binary gradient (linear) mixture of A: KH2PO4 (28.4 g in 2000 ml de-mineralised water) and B: methanol (please see table 1 and figure 1). The eluent is filtered through a 0.45 µm filter and degassed before use.
Prior to HPLC analysis, the samples were filtered through a 0.45 µm filter or smaller, e.g. a sterile Sartorius Minisart 0.45 µm filter (#16555) or a Millipore Millex-GS 0.22 µm (#SBGS 0 25 SB) to remove the haze/precipitate normally formed during enzyme treatment. Normally, no dilution of the extract/sample was made before HPLC analysis.
For qualitative and semi-quantitative measurements, each of the standards was dissolved in 96% ethanol, and then mixed in a ratio and at a concentration which was within the range in the tobacco extract. For semi-quantification of the phenolic compounds in the tobacco extract, and as a measure of development in concentration of the various compounds contained in the extract, decrease in peak area relative to the peak area before addition of enzyme was used. As a measure of overall efficiency of the process, degree of reduction in total peak area of all peaks (not only the major ones) in the HPLC chromatogram with retention time Rt>3 min was used (named: "All peaks").
Unless otherwise indicated, the tobacco was extracted at a laboratory scale with water according to the following procedure: 1000 ml demineralised water is heated to 45°C. 30 g tobacco (approx. 25 g d.m.) is added and the mixture stirred by a magnetic bar and occasionally with a stick. After 15 minutes the tobacco residue is separated from the tobacco extract by vacuum filtration (Whatman glass micro fibre GF/F 11 cm). The filtered extract is then vacuum filtered at least once more or until it is completely clear. Yield was around 900 ml tobacco extract. […] No buffer was thus included in any of the trials. D.m. content of the extract was approximately 2.1%.
Tobacco extract (typically 50-100 ml) was poured into a glass beaker and a magnetic bar was added. No pH adjustments were made, and no buffer was added. The tobacco extract was heated to and controlled at 55°C during the entire enzyme treatment by means of a heating plate and a thermostat. Intensive submerse aeration was applied by blowing atmospheric air into the extract by means of a metal sinter (metal suction filter normally used for HPLC). The enzyme in question (TvL or PpL) was added to the desired concentration. Shortly after addition of laccase, the colour of the tobacco extract turned dark brown to black, and with time the liquor became turbid and a precipitate formed. The liquor was sampled with intervals for HPLC analysis.
Enzyme treatment: Surface aeration was used. TvL enzyme was added to the tobacco extract to a concentration of approximately 1.6 µg/ml. […] HPLC chromatograms of the tobacco extract before, during, and after enzyme treatment as well as chromatograms of the mixture of HPLC standards are shown in figure 6, 7, ,8, and 9.
Enzyme treatment: pH of the extract was adjusted with H2SO4 or NaOH to pH 4, pH 5, pH 6, or pH 7. The extract was kept at ambient temperature (approximately 20°C) during the entire enzyme treatment. Surface aeration was used. […]

[1] = 40 Min, approximately 1.6 µg/ml TvL at 55°C and pH 5.4
[2] = 40 Min, approximately 7.8µg/ml TvL at 55°C and pH 5.4
[3] = 80 Min, approximately 1.6 µg/ml TvL at 55°C and pH 5.4
[4] = 120 Min, approximately 1.6 µg/ml TvL at 55°C and pH 5.4

Row | Structure (SMILES) | % Remaining (peak area) after various treatment times [1] [%] | % Remaining (peak area) after various treatment times [2] [%] | % Remaining (peak area) after various treatment times [3] [%] | % Remaining (peak area) after various treatment times [4] [%] | % Remaining (peak area) after 75 minutes (pH 4) [%] | % Remaining (peak area) after 240 minutes (pH 4) [%] | % Remaining (peak area) after 75 minutes (pH 5) [%] | % Remaining (peak area) after 240 minutes (pH 5) [%] | % Remaining (peak area) after 75 minutes (pH 6) [%] | % Remaining (peak area) after 240 minutes (pH 6) [%] | % Remaining (peak area) after 75 minutes (pH 7) [%] | % Remaining (peak area) after 240 minutes (pH 7) [%] | reduction in the area of the peaks (HPLC) following enzyme treatment
1 | COc1cc2ccc(=O)oc2cc1O [S, 7-Hydroxy-6-methoxy-2H-1-benzopyran-2-one] | 82 | 3 | 30 | 12 | 89 | 58 | 94 | 12 | 96 | 6 | 100 | 112 | significant reduction
2 | O=C(C=Cc1ccc(O)c(O)c1)OC1CC(O)(C(=O)O)CC(O)C1O (centres unmarked) [CA, 3-[[3-(3,4-Dihydroxyphenyl)-1-oxo-2-propenyl]oxy]1,4,5-trihydroxycyclohexanecarboxylic acid] | 23 | 0 | 0 | 0 | 5 | 0 | 11 | 0 | 22 | 0 | 94 | 85 | significant reduction

Reference: patent publication EP1094724B1, “USE OF A PHENOL OXIDISING ENZYME IN THE TREATMENT OF TOBACCO” (priority 1998, dated 2000)
